Molecules are shown by their SMILES.

The results in this text go back to US20160202261A1 (priority 2011, published 2016).

Experiment [1] relates to VASP Ser157 and Ser239 phosphorylation in T84 and HCT116 colon cancer cells. It counts as cell-based, human.
The subject of experiment [2] is T84 human colon carcinoma cells. The experiment is classed as cell-based.

With `Nc1nc2c(nc(Br)n2[C@@H]2O[C@@H]3COP(=O)(O)O[C@H]3[C@H]2O)c(=O)[nH]1` [8-br-cGMP], in experiment [1], the “VASP phosphorylation at Ser157 and Ser239” value is “mimicked”. In experiment [2], the “Filopodia frequency and length” value is listed as “impaired”.
